Measurements reported in US9376442B2, “Methylpyrrolopyrimidinecarboxamides” (Takeda GmbH, priority 2009, dated 2016).

target: T1, PDE5A1 (Homo sapiens, UniProt O76074); assay: Inhibition of type 5 phosphodiesterase (PDE5) activity, modified SPA test with human platelet lysate; assay type: biochemical; settings: 0.5 μM cGMP, read-out: PDE5A1 inhibitory values [measured as −log IC50 (mol/l)] (converted)
T1 construct: from tissue; host or cells: human platelets from fresh donor blood (10,000 x g supernatant of sonicated lysate)
Method in brief: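 Scintillation proximity assay with [3H]cGMP tracer at 0.5 μM total cGMP, stopped after 15 min with beads containing IBMX. PDE3 and PDE2 activities suppressed with motapizone (1 μM) and a PDE2 inhibitor (10 nM). Human platelet supernatant served as the enzyme, with compound preincubated 5 min at 37° C; IC50 values from concentration-effect curves.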

| SMILES | IC50 [nM] |
| --- | --- |
| CCOc1ccc(F)cc1-c1ncnc2c(C(=O)NC3CCN(C(=O)CC)CC3)c(C)[nH]c12 [Example E53, 4-(2-Ethoxy-5-fluorophenyl)-6-methyl-N-(1-propanoylpiperidin-4-yl)-5H-pyrrolo[3,2-d]pyrimidine-7-carboxamide] | 1 to 10 |
| CCOc1ccc(F)cc1-c1ncnc2c(C(=O)NC3CCN(C(=O)COC)CC3)c(C)[nH]c12 [Example E54, 4-(2-Ethoxy-5-fluorophenyl)-N-[1-(methoxyacetyl)piperidin-4-yl]-6-methyl-5H-pyrrolo[3,2-d]pyrimidine-7-carboxamide] | 1 to 10 |
| COc1ccc(-c2ncnc3c(C(=O)NC4CCN(C(C)=O)CC4)c(C)[nH]c23)c(OCC2CC2)c1 [Example E55, N-(1-acetylpiperidin-4-yl)-4-[2-(cyclopropylmethoxy)-4-methoxyphenyl]-6-methyl-5H-pyrrolo[3,2-d]pyrimidine-7-carboxamide] | < 1 |
| CCC(=O)N1CCC(NC(=O)c2c(C)[nH]c3c(-c4ccc(OC)cc4OCC4CC4)ncnc23)CC1 [Example E56, 4-[2-(Cyclopropylmethoxy)-4-methoxyphenyl]-6-methyl-N-(1-propionylpiperidin-4-yl)-5H-pyrrolo[3,2-d]pyrimidine-7-carboxamide] | < 1 |
| COCC(=O)N1CCC(NC(=O)c2c(C)[nH]c3c(-c4ccc(OC)cc4OCC4CC4)ncnc23)CC1 [Example E57, 4-[2-(Cyclopropylmethoxy)-4-methoxyphenyl]-N-[1-(methoxyacetyl)piperidin-4-yl]-6-methyl-5H-pyrrolo[3,2-d]pyrimidine-7-carboxamide] | < 1 |
| COc1ccc(-c2ncnc3c(C(=O)N[C@H]4CC[C@H](NC(C)=O)CC4)c(C)[nH]c23)c(OCC2CC2)c1 [Example E58, N-(trans-4-acetamidocyclohexyl)-4-[2-(cyclopropylmethoxy)-4-methoxyphenyl]-6-methyl-5H-pyrrolo[3,2-d]pyrimidine-7-carboxamide] | < 1 |
| COc1ccc(-c2ncnc3c(C(=O)N[C@H]4CC[C@@H](NC(C)=O)CC4)c(C)[nH]c23)c(OCC2CC2)c1 [Example E59, N-(cis-4-acetamidocyclohexyl)-4-[2-(cyclopropylmethoxy)-4-methoxyphenyl]-6-methyl-5H-pyrrolo[3,2-d]pyrimidine-7-carboxamide] | < 1 |
| COc1ccc(-c2ncnc3c(C(=O)N[C@@H]4CCN(C(C)=O)C4)c(C)[nH]c23)c(OCC2CC2)c1 [Example E60, N-[(3R)-1-acetylpyrrolidin-3-yl]-4-[2-(cyclopropylmethoxy)-4-methoxyphenyl]-6-methyl-5H-pyrrolo[3,2-d]pyrimidine-7-carboxamide] | < 1 |
| CCC(=O)N1CC[C@@H](NC(=O)c2c(C)[nH]c3c(-c4ccc(OC)cc4OCC4CC4)ncnc23)C1 [Example E61, 4-[2-(Cyclopropylmethoxy)-4-methoxyphenyl]-6-methyl-N-[(3R)-1-propionylpyrrolidin-3-yl]-5H-pyrrolo[3,2-d]pyrimidine-7-carboxamide] | < 1 |
| COCC(=O)N1CC[C@@H](NC(=O)c2c(C)[nH]c3c(-c4ccc(OC)cc4OCC4CC4)ncnc23)C1 [Example E62, 4-[2-(Cyclopropylmethoxy)-4-methoxyphenyl]-N-[(3R)-1-(methoxyacetyl)pyrrolidin-3-yl]-6-methyl-5H-pyrrolo[3,2-d]pyrimidine-7-carboxamide] | < 1 |
| COc1ccc(OCC2CC2)c(-c2ncnc3c(C(=O)N[C@@H]4CCN(C(C)=O)C4)c(C)[nH]c23)c1 [Example E75, N-[(3R)-1-acetylpyrrolidin-3-yl]-4-[2-(cyclopropylmethoxy)-5-methoxyphenyl]-6-methyl-5H-pyrrolo[3,2-d]pyrimidine-7-carboxamide] | < 1 |
| CCC(=O)N1CC[C@@H](NC(=O)c2c(C)[nH]c3c(-c4cc(OC)ccc4OCC4CC4)ncnc23)C1 [Example E76, 4-[2-(Cyclopropylmethoxy)-5-methoxyphenyl]-6-methyl-N-[(3R)-1-propionylpyrrolidin-3-yl]-5H-pyrrolo[3,2-d]pyrimidine-7-carboxamide] | < 1 |
| COCC(=O)N1CC[C@@H](NC(=O)c2c(C)[nH]c3c(-c4cc(OC)ccc4OCC4CC4)ncnc23)C1 [Example E77, 4-[2-(Cyclopropylmethoxy)-5-methoxyphenyl]-N-[(3R)-1-(methoxyacetyl)pyrrolidin-3-yl]-6-methyl-5H-pyrrolo[3,2-d]pyrimidine-7-carboxamide] | < 1 |
| CCOc1ccc(C(F)(F)F)cc1-c1ncnc2c(C(=O)NC3CCN(C(C)=O)CC3)c(C)[nH]c12 [Example E99, N-(1-acetylpiperidin-4-yl)-4-[2-ethoxy-5-(trifluoromethyl)phenyl]-6-methyl-5H-pyrrolo[3,2-d]pyrimidine-7-carboxamide] | < 1 |
| CCOc1ccc(C(F)(F)F)cc1-c1ncnc2c(C(=O)NC3CCN(C(=O)CC)CC3)c(C)[nH]c12 [Example E100, 4-[2-Ethoxy-5-(trifluoromethyl)phenyl]-6-methyl-N-(1-propanoylpiperidin-4-yl)-5H-pyrrolo[3,2-d]pyrimidine-7-carboxamide] | < 1 |
| CCOc1ccc(C(F)(F)F)cc1-c1ncnc2c(C(=O)NC3CCN(C(=O)COC)CC3)c(C)[nH]c12 [Example E101, 4-[2-Ethoxy-5-(trifluoromethyl)phenyl]-N-[1-(methoxyacetyl)piperidin-4-yl]-6-methyl-5H-pyrrolo[3,2-d]pyrimidine-7-carboxamide] | < 1 |
| COc1cc(-c2ncnc3c(C(=O)NC4CCN(C(C)=O)CC4)c(C)[nH]c23)c(OCC2CC2)cc1F [Example E102, N-(1-Acetylpiperidin-4-yl)-4-[2-(cyclopropylmethoxy)-4-fluoro-5-methoxyphenyl]-6-methyl-5H-pyrrolo[3,2-d]pyrimidine-7-carboxamide] | < 1 |
| CCC(=O)N1CCC(NC(=O)c2c(C)[nH]c3c(-c4cc(OC)c(F)cc4OCC4CC4)ncnc23)CC1 [Example E103, 4-[2-(cyclopropylmethoxy)-4-fluoro-5-methoxyphenyl]-6-methyl-N-(1-propionylpiperidin-4-yl)-5H-pyrrolo[3,2-d]pyrimidine-7-carboxamide] | < 1 |
| COCC(=O)N1CCC(NC(=O)c2c(C)[nH]c3c(-c4cc(OC)c(F)cc4OCC4CC4)ncnc23)CC1 [Example E104, 4-[2-(Cyclopropylmethoxy)-4-fluoro-5-methoxyphenyl]-N-[1-(methoxyacetyl)piperidin-4-yl]-6-methyl-5H-pyrrolo[3,2-d]pyrimidine-7-carboxamide] | < 1 |
| CCOC(=O)N1CCC(NC(=O)c2c(C)[nH]c3c(-c4cc(OC)c(F)cc4OCC4CC4)ncnc23)CC1 [Example E105, Ethyl 4-[({4-[2-(cyclopropylmethoxy)-4-fluoro-5-methoxyphenyl]-6-methyl-5H-pyrrolo[3,2-d]pyrimidin-7-yl}carbonyl)amino]piperidine-1-carboxylate] | < 1 |
| COc1cc(-c2ncnc3c(C(=O)N[C@H]4CC[C@H](NC(C)=O)CC4)c(C)[nH]c23)c(OCC2CC2)cc1F [Example E106, N-(trans-4-Acetamidocyclohexyl)-4-[2-(cyclopropylmethoxy)-4-fluoro-5-methoxyphenyl]-6-methyl-5H-pyrrolo[3,2-d]pyrimidine-7-carboxamide] | < 1 |
| CCC(=O)N[C@H]1CC[C@H](NC(=O)c2c(C)[nH]c3c(-c4cc(OC)c(F)cc4OCC4CC4)ncnc23)CC1 [Example E107, 4-[2-(Cyclopropylmethoxy)-4-fluoro-5-methoxyphenyl]-6-methyl-N-[trans-4-(propionylamino)cyclohexyl]-5H-pyrrolo[3,2-d]pyrimidine-7-carboxamide] | < 1 |
| COCC(=O)N[C@H]1CC[C@H](NC(=O)c2c(C)[nH]c3c(-c4cc(OC)c(F)cc4OCC4CC4)ncnc23)CC1 [Example E108, 4-[2-(Cyclopropylmethoxy)-4-fluoro-5-methoxyphenyl]-N-{trans-4-[(methoxyacetyl)amino]cyclohexyl}-6-methyl-5H-pyrrolo[3,2-d]pyrimidine-7-carboxamide] | < 1 |
| CCOC(=O)N[C@H]1CC[C@H](NC(=O)c2c(C)[nH]c3c(-c4cc(OC)c(F)cc4OCC4CC4)ncnc23)CC1 [Example E109, Ethyl {trans-4-[({4-[2-(cyclopropylmethoxy)-4-fluoro-5-methoxyphenyl]-6-methyl-5H-pyrrolo[3,2-d]pyrimidin-7-yl}carbonyl)amino]cyclohexyl}carbamate] | < 1 |
| COc1cc(-c2ncnc3c(C(=O)N[C@H]4CC[C@@H](NC(C)=O)CC4)c(C)[nH]c23)c(OCC2CC2)cc1F [Example E110, N-(cis-4-Acetamidocyclohexyl)-4-[2-(cyclopropylmethoxy)-4-fluoro-5-methoxyphenyl]-6-methyl-5H-pyrrolo[3,2-d]pyrimidine-7-carboxamide] | < 1 |
| CCC(=O)N[C@H]1CC[C@@H](NC(=O)c2c(C)[nH]c3c(-c4cc(OC)c(F)cc4OCC4CC4)ncnc23)CC1 [Example E111, 4-[2-(Cyclopropylmethoxy)-4-fluoro-5-methoxyphenyl]-6-methyl-N-[cis-4-(propionylamino)cyclohexyl]-5H-pyrrolo[3,2-d]pyrimidine-7-carboxamide] | < 1 |
| COCC(=O)N[C@H]1CC[C@@H](NC(=O)c2c(C)[nH]c3c(-c4cc(OC)c(F)cc4OCC4CC4)ncnc23)CC1 [Example E112, 4-[2-(Cyclopropylmethoxy)-4-fluoro-5-methoxyphenyl]-N-{cis-4-[(methoxyacetyl)amino]cyclohexyl}-6-methyl-5H-pyrrolo[3,2-d]pyrimidine-7-carboxamide] | < 1 |
| CC(=O)N1CCC(NC(=O)c2c(C)[nH]c3c(-c4cc(C)c(F)cc4OCC4CC4)ncnc23)CC1 [Example E119, N-(1-Acetylpiperidin-4-yl)-4-[2-(cyclopropylmethoxy)-4-fluoro-5-methylphenyl]-6-methyl-5H-pyrrolo[3,2-d]pyrimidine-7-carboxamide] | < 1 |
